In patent publication US9932354B2, “Imidazo-oxadiazole and imidazo-thiadiazole derivatives” (Ares Trading S.A., priority 2012, dated 2018) one finds IC50 and Abtot/Ab42 selectivity ranges data, which are given here for eleven compounds.

Assay [1] concerns Amyloid-β peptide release (Aβ42), HEK cells overexpressing APP (HEK-APP). In words: Amyloid-β peptide release (Aβ42) assay, AlphaLISA on supernatant of HEK-APP cells. The settings on record: Homo sapiens, HEK293, 24 h incubation with compound, read-out: Ab42 IC50 Ranges. In kind it is cell-based. In outline: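 HEK-APP cells treated with compounds for 24 h at 37 °C, 5% CO2. Supernatant Aβ42 or total Aβ measured by AlphaLISA after 4.5 h with antibody beads (6E10 acceptor beads for total). IC50 values derived.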
A general note: Alpha assays give light when donor and acceptor beads are brought close together.

For assay [2], the system named is Amyloid-β peptide release (AβTotal), HEK cells overexpressing APP (HEK-APP). As to the kind of experiment: Amyloid-β peptide release (AβTotal) assay, AlphaLISA on supernatant of HEK-APP cells. In kind it is cell-based. The settings on record: ratio Abtot vs Ab42, HEK-APP cells, 24 h.

A word on the IC50: it is the midpoint of a concentration-inhibition curve. Take `Cc1ccc(C)c(CC(=O)Nc2ccc(-c3nn4c(C)ncc4o3)nc2)c1` [Example 10, 2-(2,5-Dimethyl-phenyl)-N-[6-(5-methyl-imidazo [5,1-b][1,2,4]oxadiazol-2-yl)-pyridin-3-yl]-acetamide]: the IC50 in assay [1] was 1000 to 2200 nM. Besides, the Abtot/Ab42 selectivity ranges result in assay [2] is recorded as “c (c: 50 fold > selectivity ≥ 10 fold)”.

Consider `Cc1cc(-c2nn3c(C)ncc3o2)ccc1NC(=O)Cc1cccc(C(F)(F)F)c1` [Example 41, N-(2-methyl-4-(5-methylimidazo[5,1-b][1,3,4]oxadiazol-2-yl)phenyl)-2-(3-(trifluoromethyl)phenyl)acetamide], for which, in assay [1], the IC50 was in the range of 500 to 1000 nM. Further, in assay [2], the Abtot/Ab42 selectivity ranges result is listed as “b (b: 100 fold > selectivity ≥ 50 fold)”.

`Cc1ncc2sc(C(=O)N(C)Cc3cccc(C(F)(F)F)c3)nn12` [Example 101, 5-Methyl-imidazo[5,1-b][1,3,4]thiadiazole-2-carboxylic acid methyl-(3-trifluoromethyl-benzyl)-amide]: the IC50 in assay [1] lay within 500 to 1000 nM. The Abtot/Ab42 selectivity ranges result in assay [2] is given as “d (d: 10 fold > selectivity)”.

For the compound `Cc1ncc2sc(C(=O)N3CCCCC3c3ccccc3)nn12` (stereo not shown) [Example 108, (5-Methyl-imidazo[5,1-b][1,3,4]thiadiazol-2-yl)-(2-phenyl-piperidin-1-yl)-methanone], in assay [1], the half-maximal inhibitory concentration (IC50) fell in the range of 500 to 1000 nM. Moreover, the Abtot/Ab42 selectivity ranges result in assay [2] was “d (d: 10 fold > selectivity)”.

Turning to `Cc1cc(-c2nn3c(C)ncc3o2)ccc1NC(=O)Cc1ccc(OC(F)(F)F)cc1` [Example 45, N-(2-methyl-4-(5-methylimidazo[5,1-b][1,3,4]oxadiazol-2-yl)phenyl)-2-(4-(trifluoromethoxy)phenyl)acetamide], the IC50 in assay [1] was 500 to 1000 nM. Also, in assay [2], the Abtot/Ab42 selectivity ranges result is on record as “b (b: 100 fold > selectivity ≥ 50 fold)”.

Consider `Cc1ncc2sc(C(=O)N(C)Cc3ccccc3)nn12` [Example 98, 5-Methyl-imidazo[5,1-b][1,3,4]thiadiazole-2-carboxylic acid benzyl-methyl-amide], for which the concentration for half-maximal inhibition (IC50) in assay [1] was 1000 to 2200 nM. For the same compound, the Abtot/Ab42 selectivity ranges result in assay [2] is reported as “d (d: 10 fold > selectivity)”.

On to `Cc1ncc2oc(-c3ccc(NC(=O)Nc4ccccc4C(F)(F)F)cc3)nn12` [Example 58, 1-[4-(5-Methyl-imidazo[5,1-b][1,2,4]oxadiazol-2-yl)-phenyl]-3-(2-trifluoromethyl-phenyl)-urea], for which the concentration for half-maximal inhibition (IC50) in assay [1] fell in the range of 500 to 1000 nM. Further, the Abtot/Ab42 selectivity ranges entry in assay [2] was “d (d: 10 fold > selectivity)”.

As to `Cc1cc(C)cc(CC(=O)Nc2ccc(-c3nn4c(C)ncc4o3)cc2)c1` [Example 51, 2-(3,5-Dimethyl-phenyl)-N-[4-(5-methyl-imidazo[5,1-b][1,2,4]oxadiazol-2-yl)-phenyl]-acetamide], the IC50 in assay [1] fell in the range of 500 to 1000 nM. In addition, in assay [2], the Abtot/Ab42 selectivity ranges result was “c (c: 50 fold > selectivity ≥ 10 fold)”.

Turning to `COc1ccc(Cl)c(CC(=O)Nc2ccc(-c3nn4c(C)ncc4o3)cc2)c1F` [Example 69, 2-(6-chloro-2-fluoro-3-methoxyphenyl)-N-(4-(5-methylimidazo [5,1-b][1,3,4]oxadiazol-2-yl)phenyl)acetamide], in assay [1], the 50% inhibitory concentration (IC50) lay in the range of 500 to 1000 nM. In assay [2], the Abtot/Ab42 selectivity ranges entry is reported as “b (b: 100 fold > selectivity ≥ 50 fold)”.

`Cc1ncc2sc(C(=O)N3CCCC3c3ccc(F)cc3)nn12` (stereo not shown) [Example 124, [2-(4-Fluoro-phenyl)-pyrrolidin-1-yl]-(5-methyl-imidazo[5,1-b][1,3,4]thiadiazol-2-yl)-methanone]: the IC50 in assay [1] is 100 to 500 nM. For the same compound, the Abtot/Ab42 selectivity ranges entry in assay [2] is recorded as “d (d: 10 fold > selectivity)”.

For the compound `CCOc1ccc(CC(=O)Nc2ccc(-c3nn4c(C)ncc4o3)cc2)cc1` [Example 8, 2-(4-Ethoxy-phenyl)-N-[4-(5-methyl-imidazo[5,1-b][1,2,4]oxadiazol-2-yl)-phenyl]-acetamide], in assay [1], the IC50 lay in the range of 1000 to 2200 nM. Also, the Abtot/Ab42 selectivity ranges result in assay [2] is “c (c: 50 fold > selectivity ≥ 10 fold)”.
